Laboratory results from patent publication US20110053897A1 (IRM LLC, priority 2009, published 2011).
Like-named read-outs stand apart in the source and are kept apart here.

Biological target: T1, Syk kinase (Homo sapiens, UniProt P43405)
T1 construct: purchased
Test: Syk kinase inhibition, Caliper LabChip off-chip mobility-shift kinase assay
Type: biochemical
Conditions: read-out: Syk Enzyme IC50
How it was run: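 Purified Syk pre-incubated 15 min with compound in 100 mM HEPES pH 7.5, 1 mM DTT, 10 mM MgCl2 or MnCl2, 0.002% Brij-35, then 1.5 μM fluorescein peptide and ATP at apparent KM added; 1–1.5 h at room temperature, 4% DMSO, EDTA stop. Microfluidic mobility-shift product/substrate conversion gave % inhibition; IC50 from 12-point series (10–0.00003 μM) by 4-parameter fit.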

| IC50 (Caliper LabChip assay) [µM] | IC50 [µM] | Compound |
| --- | --- | --- |
| 0.089 |  | CC(C)(Nc1nc(Nc2cnccn2)cc2ccn(CCO)c(=O)c12)C1CC1 [compound 670] |
|  | 2.61 | CCCNC(=O)c1ccc(Nc2cc3ccn(C)c(=O)c3c(N)n2)nc1 [compound 575] |
|  | 2.37 | COc1cncc(-c2cc3cc[nH]c(=O)c3c(Nc3ccc4c(c3)C3CC4CN(C(=O)C(F)(F)F)C3)n2)n1 (stereo not drawn) [compound 95] |
| 0.004 |  | CC(C)(C)Nc1nc(Nc2cc(CCO)ccn2)cc2ccn(CCO)c(=O)c12 [compound 857] |
| 0.612 |  | CC(C)(C)Nc1nc(Nc2cc(C3=CCCCC3)ncn2)cc2ccn(CCO)c(=O)c12 [compound 623] |
| 0.202 |  | CCn1ccc2cc(-c3cnc(N)nc3)nc(NS(C)(=O)=O)c2c1=O [compound 744, N-(3-(2-Aminopyrimidin-5-yl)-7-ethyl-8-oxo-7,8-dihydro-2,7-naphthyridin-1-yl)methane sulfonamide] |
| 0.226 |  | CCn1ccc2cc(Nc3cc(C)ccn3)nc(N[C@@H]3CCC[C@@H]3CO)c2c1=O [compound 941] |
| 0.018 |  | CC(C)(C)Nc1nc(Nc2cc(C(C)(C)O)c(F)cn2)cc2ccn(CCO)c(=O)c12 [compound 717] |
| 0.271 |  | CC(C)(C)Nc1nc(Nc2cc(-c3ccccc3)ccn2)cc2ccn(CCO)c(=O)c12 [compound 829] |
|  | 0.153 | O=c1[nH]ccc2cc(Nc3ccccn3)nc(NC3CCCC3)c12 [compound 296] |
|  | 0.033 | CCCN1CCC(c2ccc(Nc3nc(-c4cncc(OC)n4)cc4cc[nH]c(=O)c34)cc2C)CC1 [compound 55] |
| 0.0186 |  | CC(C)(C)Nc1nc(Nc2cc(CN3CC(O)C3)ccn2)cc2ccn(CCO)c(=O)c12 [Compound No. 600, 8-(tert-butylamino)-6-(4-((3-hydroxyazetidin-1-yl)methyl)pyridin-2-ylamino)-2-(2-hydroxyethyl)-2,7-naphthyridin-1(2H)-one] |
|  | 0.013 | Cc1ccnc(Nc2cc3ccn(CCO)c(=O)c3c(N[C@@H](C)CO)n2)c1 [compound 367] |
|  | 1.66 | COc1cncc(-c2cc3cc[nH]c(=O)c3c(Nc3ccc4c(c3)C3CNCC4C3)n2)n1 (stereo not drawn) [compound 96] |
| 0.062 |  | C/C(=N\O)c1ccnc(Nc2cc3ccn(CCO)c(=O)c3c(NC(C)(C)C)n2)c1 [compound 685, (E)-8-(tert-butylamino)-2-(2-hydroxyethyl)-6-(4-(1-(hydroxyimino)ethyl)pyridin-2-ylamino)-2,7-naphthyridin-1(2H)-one] |
| 0.09 |  | CC(C)(C)Nc1nc(Nc2ccncn2)cc2ccn(CCO)c(=O)c12 [compound 736] |
|  | 0.007 | COc1cncc(-c2cc3cc[nH]c(=O)c3c(Nc3ccc(C4CCN(CC(O)CO)CC4)cc3)n2)n1 (stereo not drawn) [compound 127] |
| 0.013 |  | C[C@H](O)c1ccnc(Nc2cc3ccn(CCO)c(=O)c3c(NC(C)(C)C)n2)c1 [compound 714] |
|  | 1.12 | CC(=O)N1CCN(CCc2ccc(Nc3nc(Nc4ccc(C)cn4)cc4cc[nH]c(=O)c34)cc2)CC1 [compound 541] |
|  | 0.049 | Cc1ncc(-c2cc3cc[nH]c(=O)c3c(Nc3ccc([C@H]4CC[C@H](N5CCOCC5)CC4)cc3)n2)cn1 [compound 1] |
|  | 0.694 | CC(C)CNc1nc(Nc2ccccn2)cc2cc[nH]c(=O)c12 [compound 288] |
|  | 0.032 | COc1cncc(-c2cc3cc[nH]c(=O)c3c(Nc3ccc(C4CCN(CCC(=O)N5CCOCC5)CC4)c(C)c3)n2)n1 [compound 162] |
|  | 0.075 | CCOCC(=O)N1CCC(c2ccc(Nc3nc(-c4cncc(OC)n4)cc4cc[nH]c(=O)c34)cc2C)CC1 [compound 50] |
|  | 0.113 | CCN1CCN(CCc2ccc(Nc3nc(Nc4ccc(C(N)=O)cn4)cc4cc[nH]c(=O)c34)cc2)CC1 [compound 579] |

| IC50 (Caliper LabChip assay) [µM] | IC50 [µM] | Compound |
| --- | --- | --- |
| 0.205 |  | CC(C)(C)Nc1nc(Nc2cnccn2)cc2ccn(CCN3CCOCC3)c(=O)c12 [compound 998] |
|  | 0.093 | Nc1ncc(-c2cc3cc[nH]c(=O)c3c(NCCc3cccnc3)n2)cn1 [compound 188] |
|  | 0.112 | Cn1ccc2cc(Nc3cnccn3)nc(Nc3ccc(C4CCNCC4)cc3)c2c1=O [compound 341] |
|  | 0.03 | COc1cncc(-c2cc3cc[nH]c(=O)c3c(Nc3ccc(C4CCN(CCC#N)C4)cc3)n2)n1 (stereo not drawn) [compound 65] |
| 0.015 |  | COCC(COC)n1ccc2cc(-c3cnc(N)nc3)nc(NC(C)(C)C)c2c1=O [compound 936] |
| 0.044 |  | CC(C)(O)Cn1ccc2cc(-c3cnc(N)nc3)nc(NC(C)(C)C)c2c1=O [compound 928] |
| 0.066 |  | CC1(Nc2nc(Nc3cc(C(O)C(F)(F)F)ccn3)cc3ccn(CC(N)=O)c(=O)c23)CC1 (stereo not drawn) [compound 614] |
|  | 0.58 | Cn1ccc2cc(Nc3cnccn3)nc(Nc3cccc(C(N)=O)c3)c2c1=O [compound 477] |
|  | 0.415 | [2H]C([2H])([2H])n1ccc2cc(Nc3cc(C)c(F)cn3)nc(NC3CC3)c2c1=O [compound 547] |
| 0.006 |  | CC(C)(C)Nc1nc(-c2cnc(N)nc2)cc2ccn(C(CO)CO)c(=O)c12 [compound 922] |
|  | 0.027 | C[C@@H](CO)Nc1nc(Nc2cnccn2)cc2ccn(CCO)c(=O)c12 [compound 373] |
|  | 0.045 | CN(C)[C@H]1CC[C@H](c2ccc(Nc3nc(-c4cncnc4)cc4cc[nH]c(=O)c34)cc2)CC1 [compound 92] |
|  | 0.046 | [2H]C([2H])([2H])n1ccc2cc(Nc3cc(C)ccn3)nc(N[C@@H](C)CO)c2c1=O [compound 398] |
|  | 0.554 | Cc1ccnc(Nc2cc3cc[nH]c(=O)c3c(N3CCCC3)n2)c1 [compound 269] |
|  | 0.414 | CNS(=O)(=O)c1ccc(Nc2nc(Nc3cc(C)ccn3)cc3ccn(C)c(=O)c23)cc1 [compound 349] |
| 0.102 |  | CC(C)(C)Nc1nc(Nc2cc(-c3cnn(CC(N)=O)c3)ccn2)cc2ccn(CCO)c(=O)c12 [compound 849] |
| 0.027 |  | C[C@@H](CO)Nc1nc(Nc2cnccn2)cc2ccn(CCC#N)c(=O)c12 [compound 1003] |
|  | 0.184 | COC(=O)C(C)N1CCC(c2ccc(Nc3nc(-c4cncc(OC)n4)cc4cc[nH]c(=O)c34)cc2C)CC1 (stereo not drawn) [compound 116] |
|  | 0.115 | COc1cncc(-c2cc3cc[nH]c(=O)c3c(Nc3ccc(C4CCN(CCS(C)(=O)=O)CC4)c(C)c3)n2)n1 [compound 132] |
|  | 0.117 | Nc1ncc(-c2cc3cc[nH]c(=O)c3c(NCC(F)(F)F)n2)cn1 [compound 450] |
|  | 0.398 | COc1cncc(-c2cc3cc[nH]c(=O)c3c(Nc3ccc(C4CCN(C(=O)C(O)C(C)C)CC4)c(C)c3)n2)n1 (stereo not drawn) [compound 6] |
| 0.024 |  | NC(=O)Cn1ccc2cc(-c3cnc(N)nc3)nc(NC3CCOCC3)c2c1=O [compound 750] |
|  | 0.222 | CNC(=O)c1ccc(Nc2nc(Nc3cc(C)ccn3)cc3ccn(C)c(=O)c23)cc1 [compound 342] |
|  | 0.022 | COc1cncc(-c2cc3cc[nH]c(=O)c3c(Nc3ccc(C4CN(CCS(C)(=O)=O)C4)cc3)n2)n1 [compound 148] |

| IC50 (Caliper LabChip assay) [µM] | IC50 [µM] | Compound |
| --- | --- | --- |
| 0.031 |  | CC(O)c1ccnc(Nc2cc3ccn(CC(N)=O)c(=O)c3c(NC(C)(C)C)n2)c1 (stereo not drawn) [compound 725] |
|  | 0.041 | COc1cncc(-c2cc3cc[nH]c(=O)c3c(Nc3ccc(C4CCN(CC(=O)N(C)OC)CC4)c(C)c3)n2)n1 [compound 176] |
|  | 0.183 | CCN1CCN(CCc2ccc(Nc3nc(Nc4cc(C(F)(F)F)ccn4)cc4cc[nH]c(=O)c34)cc2)CC1 [compound 520] |
|  | 0.307 | C[C@@H]1CN(c2ccc(Nc3nc(CCC(=O)O)cc4cc[nH]c(=O)c34)cn2)CCO1 [compound 243] |
| 0.219 |  | CC(C)(C)Nc1nc(Nc2cnccn2)cc2ccn(Cc3ccccn3)c(=O)c12 [compound 1021] |
|  | 0.361 | Cc1cc(Nc2nc(Nc3ccc(C(N)=O)cn3)cc3cc[nH]c(=O)c23)ccc1N1CCO[C@H](C)C1 [compound 538] |
|  | 0.017 | O=c1c2c(N[C@H]3CC[C@@H](O)CC3)nc(Nc3cc(Cl)ccn3)cc2ccn1CCO [compound 384] |
|  | 4.87 | O=c1[nH]ccc2cc(Nc3ccc(F)cn3)nc(Nc3ccc(N4CCOCC4)cc3)c12 [compound 576] |
|  | 0.034 | CCN1CCN(CCc2ccc(Nc3nc(-c4cncc(OC)n4)cc4cc[nH]c(=O)c34)cc2)CC1C (stereo not drawn) [compound 33] |
|  | 0.026 | CN1CC(c2ccc(Nc3nc(-c4cncnc4)cc4cc[nH]c(=O)c34)cc2)C1 [compound 138] |
| 0.02 |  | [2H][C@]1(O)CC[C@H](Nc2nc(Nc3cc(C)ccn3)cc3ccn(CC)c(=O)c23)CC1 [compound 990] |
| 0.012 |  | [2H][C@]1(O)CC[C@@H](Nc2nc(Nc3cnccn3)cc3ccn(CC)c(=O)c23)CC1 [compound 992] |
| 0.016 |  | CC(C)n1ccc2cc(Nc3cnccn3)nc(N[C@H]3CC[C@@H](O)C3)c2c1=O [compound 978] |
|  | 0.052 | Cc1ccnc(Nc2cc3ccn(CCO)c(=O)c3c(NC(C)(C)CO)n2)c1 [compound 495] |
| 0.651 |  | Nc1nc(Nc2cnccn2)cc2ccn(CCO)c(=O)c12 [compound 811] |
|  | 0.167 | COCC(C)Nc1nc(Nc2ccccn2)cc2cc[nH]c(=O)c12 (stereo not drawn) [compound 276] |
| 0.033 |  | CC(C)(C)Nc1nc(Nc2cc(C(C)(F)F)ccn2)cc2ccn(CCO)c(=O)c12 [compound 874] |
|  | 0.356 | COCCCc1cc2cc[nH]c(=O)c2c(Nc2ccc(N3CCOCC3)cc2)n1 [compound 240] |
| 0.019 |  | CC(C)(C)Nc1nc(Nc2cnccn2)cc2ccn(CCC#N)c(=O)c12 [compound 1004] |
|  | 0.0236 | CCn1ccc2cc(Nc3cnccn3)nc(N[C@H]3CCC[C@H]3O)c2c1=O [compound 421] |
|  | 0.051 | CC(C)Nc1nc(Nc2cc(C(N)=O)ccn2)cc2cc[nH]c(=O)c12 [compound 514] |
|  | 0.122 | O=c1[nH]ccc2cc(Nc3cc(Cl)ccn3)nc(NC3CC3)c12 [compound 481] |
| 0.005 |  | CCn1ccc2cc(Nc3cnccn3)nc(NC3(CO)CCC3)c2c1=O [compound 897] |
| 0.169 |  | CC(C)(C)Nc1nc(Nc2cc(C(C)(C)C(=O)O)ccn2)cc2ccn(CCO)c(=O)c12 [compound 861] |
